# Reference: paper PMC467089, “Click estradiol dimers with novel aromatic bridging units: synthesis and anticancer evaluation” (Journal of Enzyme Inhibition and Medicinal Chemistry, 2024)
# What was measured:
# CCRF-CEM lymphoblasts [1] = experiment: Cell cycle analysis by flow cytometry (propidium iodide); type: cell-based, human
# Procedure: (§1) To further characterise the mode of action of studied compounds, we analysed the cell cycle profile of CCRF-CEM cells treated with compounds for 24 h. […] The compounds ED1–ED9 and ED12 induced arrest in G2/M phase of the cell cycle (Figure 2(A)). To differentiate between G2 block and mitotic arrest, we used phospho-histone H3 (Ser10) mitotic marker (Figure 2(B)). […] Generally, dimers induced a dose-dependent increase of sub G1 cell population with fragmented DNA except for ED2 and ED4 (Figure 2(C)). […] To assess the proliferation of treated cells, they were subjected to 5-bromo-2-deoxyuridine (BrDU) labelling. […] Analogously, changes in 5-bromouridine (BrU) incorporation were examined to monitor overall RNA synthesis.
# (§2) Treated CCRF-CEM cells were harvested, washed with ice-cold phosphate-buffered saline (PBS), fixed in cold 70% ethanol and stored at −20 °C. Prior to analysis, fixed cells were permeabilised with 0.25% Triton X-100 in PBS for 15 min, blocked in 1% bovine serum, and incubated with anti-phospho-Histone H3 (Ser^10) antibody (Merck Millipore, Burlington, MA). Subsequently, the cells were treated with 50 μg/mL RNAse, stained with propidium iodide and analysed by FACSCalibur (Becton Dickinson, Franklin Lakes, NJ) flow cytometer at 488 nm. Cell cycle distribution (G1, S, and G2/M) was analysed using ModFitLT software (Verity, Topsham, ME), and reflects only viable population prior to the fixing procedure. Particles with lower propidium iodide content than G1 phase cells were classified as non-viable cells with fragmented DNA. Flow cytometry data visualisation was performed using OriginPro 2018b (b9.5.5.409) software (OriginLab Corporation, Northampton, MA)[10].
# [2] = tested on: HCT116 (colorectal adenocarcinoma); experiment: MTS cytotoxicity assay, HCT116; type: cell-based; settings: Homo sapiens, HCT-116, 72 h, read-out: IC50 cytotoxic activity HCT116
# Procedure: (§3) The p53 deficient variant, HCT116p53−/−, was purchased from Horizon Discovery (Cambridge, UK). The daunorubicin-resistant CCRF-CEM cell line CEM-DNR bulk and paclitaxel-resistant K562-TAX sublines were developed in-house by exposing parental cell lines to escalating concentrations of daunorubicin and paclitaxel, respectively. Cells were maintained in the recommended culture medium (Sigma-Aldrich, St. Louis, MO) supplemented with 10% foetal calf serum, 100 U/mL penicillin, and 100 μg/mL streptomycin. The HUVEC line was obtained from PromoCell (Heidelberg, Germany). The cells were cultured in endothelial cell growth medium with SupplementMix for endothelial cells (PromoCell, Heidelberg, Germany). The incubation conditions were a humidified atmosphere of 95% air and 5% CO2 at 37 °C[10]. Cells were seeded in 384-well plates and after overnight incubation treated with compounds. All tested compounds were dissolved in 100% DMSO, and fourfold serial dilutions were performed using an Echo550 liquid handler (Labcyte, San Jose, CA). The experiments were performed in technical duplicates and three biological replicates. Cells were incubated with compounds for 72 h and thereafter 5 μL of MTS reagent was added to each well.
# [3] = tested on: CEM-DNR (daunorubicin resistant variant of CCRF-CEM); experiment: MTS cytotoxicity assay, CEM-DNR; type: cell-based, human; settings: for IC50: Homo sapiens, CEM-DNR, 72 h, read-out: IC50 cytotoxic activity CEM-DNR
# Procedure: as §3
# U2OS (osteosarcoma) = experiment: MTS cytotoxicity assay, U2OS; type: cell-based, human; settings: Homo sapiens, U2OS, 72 h, read-out: IC50 cytotoxic activity U2OS
# Procedure: as §3
# [4] = MTS cytotoxicity assay, HUVEC; type: cell-based; settings: human
# Procedure: as §3
# [5] = MTS cytotoxicity assay, MRC-5; type: cell-based; settings: human
# Procedure: as §3
# [6] = tested on: K562 (chronic myelogenous leukaemia); experiment: MTS cytotoxicity assay, K562; type: cell-based; settings: Homo sapiens, K562, 72 h, read-out: IC50 cytotoxic activity K562
# Procedure: as §3
# CCRF-CEM lymphoblasts [7] = experiment: Phospho-histone H3 (Ser10) mitotic marker, flow cytometry; type: cell-based, human
# Procedure: as §1, §2
# porcine brain tubulin = biological target: T1, porcine brain tubulin (Sus scrofa, UniProt P02550+P02554); experiment: Tubulin polymerisation assay; type: biochemical; settings: 10 μmol/L, Vmax relative to DMSO
# T1 construct: purchased Cytoskeleton, Denver, CO; host or cells: porcine brain (tissue-purified)
# Procedure: Tubulin polymerisation assay kit (Cytoskeleton, Denver, CO) was used according to the manufacturer’s instructions. Polymerisation of porcine brain tubulin (>99% purity) was measured using an EnVision Multilabel Plate Reader (PerkinElmer, Waltham, MA) at 37 °C, in the presence of either 10 μmol/L test compounds or DMSO. Maximum polymerisation velocity (Vmax) was calculated from the polymerisation curves. Data visualisation was performed in OriginPro 2018b (b9.5.5.409) software (OriginLab Corporation, Northampton, MA)[10].
# [8] = tested on: CCRF-CEM (childhood T-cell acute lymphoblastic leukaemia); experiment: MTS cytotoxicity assay, CCRF-CEM; type: cell-based; settings: Homo sapiens, 72 h, read-out: IC50 cytotoxic activity CCRF-CEM
# Procedure: as §3
# CCRF-CEM lymphoblasts [9] = experiment: BrDU incorporation analysis (DNA synthesis); type: cell-based, human
# Procedure: as §1
# Thirty minutes before harvesting, cells were pulse-labelled with 10 μM BrDU. After overnight fixation in ice-cold 70% ethanol, cells were resuspended in 2 M HCl for 30 min at room temperature (RT), then washed with 0.1 M Na2B4O7 and blocked with PBS containing 0.5% Tween-20 and 1% BSA. BrDU incorporation was analysed using anti-BrdU antibody clone MoBu-1 (Exbio, Vestec, Czech Republic) and a secondary anti-mouse-FITC antibody (Sigma-Aldrich, St. Louis, MO). Cells were washed with PBS and stained with 0.1 mg/mL propidium iodide and 0.5 mg/mL RNase A for 1 h at RT and analysed by flow cytometry using a 488 nm single beam laser (FACSCalibur, Becton Dickinson, Franklin Lakes, NJ). The percentage of cells with incorporated BrDU was analysed using CellQuest software.
# CCRF-CEM lymphoblasts [10] = experiment: BrU incorporation analysis (RNA synthesis); type: cell-based, human
# Procedure: as §1
# Prior to the trypsinisation, cells were treated with 1 mM BrU for 30 min. Subsequently, the cells were fixed in 1% paraformaldehyde with 0.05% of NP-40 for 15 min at RT and stored overnight at 4 °C. Fixed cells were washed with 1% glycine in PBS and stained with primary anti-BrdU antibody clone MoBu-1 crossreacting with BrU (Exbio, Vestec, Czech Republic) for 30 min at RT, washed with PBS and labelled with secondary anti-mouse-FITC antibody (Sigma-Aldrich, St. Louis, MO). Following 1-h incubation in 1% paraformaldehyde containing 0.05% NP-40, cells were stained with propidium iodide (0.1 mg/mL) and treated with RNase A (0.5 mg/mL) for 1 h at RT. The percentage of BrU positive cells was quantified using CellQuest software.
# [11] = tested on: K562-TAX (paclitaxel-resistant variant of K562); experiment: MTS cytotoxicity assay, K562-TAX; type: cell-based, human; settings: for IC50: Homo sapiens, K562-Tax, 72 h, read-out: IC50 cytotoxic activity K562-TAX
# Procedure: as §3
# [12] = tested on: HCT116p53−/− (p53 gene null variant of HCT116); experiment: MTS cytotoxicity assay, HCT116p53−/−; type: cell-based; settings: Homo sapiens, HCT-116, 72 h, read-out: IC50 cytotoxic activity HCT116p53-
# Procedure: as §3
# [13] = MTS cytotoxicity assay, BJ; type: cell-based; settings: human
# Procedure: as §3
# [14] = tested on: A549 (lung adenocarcinoma); experiment: MTS cytotoxicity assay, A549; type: cell-based, human; settings: Homo sapiens, A549, 72 h, read-out: IC50 cytotoxic activity A549
# Procedure: as §3
# T1 sequence (P02550 whole entry): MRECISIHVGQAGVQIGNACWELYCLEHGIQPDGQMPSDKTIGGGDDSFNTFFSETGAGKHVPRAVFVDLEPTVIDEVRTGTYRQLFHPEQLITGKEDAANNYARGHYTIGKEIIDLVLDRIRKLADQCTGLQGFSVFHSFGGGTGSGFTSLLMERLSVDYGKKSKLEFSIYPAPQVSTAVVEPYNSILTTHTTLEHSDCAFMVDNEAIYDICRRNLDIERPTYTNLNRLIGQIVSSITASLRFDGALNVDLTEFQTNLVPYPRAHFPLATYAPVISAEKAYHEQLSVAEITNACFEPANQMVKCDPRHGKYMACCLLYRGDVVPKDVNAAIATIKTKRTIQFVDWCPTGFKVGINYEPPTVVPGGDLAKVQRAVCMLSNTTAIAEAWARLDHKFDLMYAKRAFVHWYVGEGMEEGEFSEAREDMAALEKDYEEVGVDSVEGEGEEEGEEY
# T1 sequence (P02554 whole entry): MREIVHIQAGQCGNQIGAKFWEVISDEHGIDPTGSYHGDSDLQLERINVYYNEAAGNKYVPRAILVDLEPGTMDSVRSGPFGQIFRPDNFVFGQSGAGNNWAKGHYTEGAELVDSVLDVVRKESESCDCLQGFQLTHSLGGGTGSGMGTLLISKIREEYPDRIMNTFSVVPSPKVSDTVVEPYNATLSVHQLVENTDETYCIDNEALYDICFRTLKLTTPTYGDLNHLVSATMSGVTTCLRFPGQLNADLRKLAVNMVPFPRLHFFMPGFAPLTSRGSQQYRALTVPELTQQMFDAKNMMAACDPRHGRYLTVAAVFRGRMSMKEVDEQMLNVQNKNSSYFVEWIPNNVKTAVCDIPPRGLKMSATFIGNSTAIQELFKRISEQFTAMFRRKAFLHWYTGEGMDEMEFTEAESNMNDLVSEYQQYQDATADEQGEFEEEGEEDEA
SMILES,"<G1 (sub-G1, fragmented DNA), % of positive cells (CCRF-CEM lymphoblasts [1]; 1×IC50, 24 h)",">G2/M (polyploidy), % of positive cells (CCRF-CEM lymphoblasts [1]; 1×IC50, 24 h)","G0/G1, % of positive cells (CCRF-CEM lymphoblasts [1]; 1×IC50, 24 h)","G2/M, % of positive cells (CCRF-CEM lymphoblasts [1]; 1×IC50, 24 h)","S, % of positive cells (CCRF-CEM lymphoblasts [1]; 1×IC50, 24 h)","<G1 (sub-G1, fragmented DNA), % of positive cells (CCRF-CEM lymphoblasts [1]; 5×IC50, 24 h)",">G2/M (polyploidy), % of positive cells (CCRF-CEM lymphoblasts [1]; 5×IC50, 24 h)","G0/G1, % of positive cells (CCRF-CEM lymphoblasts [1]; 5×IC50, 24 h)","G2/M, % of positive cells (CCRF-CEM lymphoblasts [1]; 5×IC50, 24 h)","S, % of positive cells (CCRF-CEM lymphoblasts [1]; 5×IC50, 24 h)",IC50 [2],IC50 [3],IC50 (U2OS (osteosarcoma)),IC50 at 72 h [4],IC50 at 72 h [5],IC50 [6],"pH3Ser10, % of positive cells (CCRF-CEM lymphoblasts [7]; 1×IC50, 24 h)","pH3Ser10, % of positive cells (CCRF-CEM lymphoblasts [7]; 5×IC50, 24 h)",inhibitory activity against tubulin polymerisation (in words) (porcine brain tubulin),IC50 [8],further results
"CC(=O)Oc1c(Cn2cc([C@]3(O)CC[C@H]4[C@@H]5CCc6cc(O)ccc6[C@H]5CC[C@@]43C)nn2)cc(C)cc1Cn1cc([C@]2(O)CC[C@H]3[C@@H]4CCc5cc(O)ccc5[C@H]4CC[C@@]32C)nn1 [ED7, 2,6-Bis({4-[(17β)-3,17-dihydroxyestra-1,3,5(10)-trien-17-yl]-1H-1,2,3-triazol-1-yl}methyl)-4-methylphenyl acetate]",40.74%,7.12%,32.36%,33.76%,33.88%,45.33%,7.43%,32.48%,32.87%,34.65%,1610 ± 87 nM,> 50000 nM,3860 ± 1390 nM,14 ± 2 nM,> 50000 nM,770 ± 130 nM,0.68%,11.22%,comparable or better inhibitory activity,1290 ± 130 nM,"BrDU, % of positive cells (CCRF-CEM lymphoblasts [9]; 1×IC50, 24 h): 9.50%; BrDU, % of positive cells (CCRF-CEM lymphoblasts [9]; 5×IC50, 24 h): 5.65%; BrU, % of positive cells (CCRF-CEM lymphoblasts [10]; 1×IC50, 24 h): 52.67%; BrU, % of positive cells (CCRF-CEM lymphoblasts [10]; 5×IC50, 24 h): 27.20%; IC50 [11]: > 50000 nM; IC50 [12]: 1790 ± 170 nM; IC50 at 72 h [13]: > 50000 nM; IC50 [14]: > 50000 nM"
"COc1c(Cn2cc([C@]3(O)CC[C@H]4[C@@H]5CCc6cc(O)ccc6[C@H]5CC[C@@]43C)nn2)cc(C)cc1Cn1cc([C@]2(O)CC[C@H]3[C@@H]4CCc5cc(O)ccc5[C@H]4CC[C@@]32C)nn1 [ED8, (17β,17′β)-17,17′-[(2-Methoxy-5-methylbenzene-1,3-diyl)bis(methanediyl-1H-1,2,3-triazole-1,4-diyl)]bisestra-1,3,5(10)-triene-3,17-diol]",16.29%,7.25%,34.59%,31.94%,33.47%,24.86%,10.51%,4.71%,78.93%,16.36%,1770 ± 160 nM,3440 ± 690 nM,6930 ± 1160 nM,79 ± 48 nM,> 50000 nM,690 ± 150 nM,11.01%,0.63%,comparable or better inhibitory activity,1380 ± 180 nM,"IC50 cytotoxic activity CEM-DNR [3]: maintained its activity; BrDU, % of positive cells (CCRF-CEM lymphoblasts [9]; 1×IC50, 24 h): 45.06%; BrDU, % of positive cells (CCRF-CEM lymphoblasts [9]; 5×IC50, 24 h): 5.15%; BrU, % of positive cells (CCRF-CEM lymphoblasts [10]; 1×IC50, 24 h): 59.19%; BrU, % of positive cells (CCRF-CEM lymphoblasts [10]; 5×IC50, 24 h): 3.11%; IC50 cytotoxic activity K562-TAX [11]: sensitive; IC50 [11]: 13100 ± 3690 nM; IC50 [12]: 2010 ± 120 nM; IC50 at 72 h [13]: > 50000 nM; IC50 [14]: > 50000 nM"
"Cc1cc(C)c(Cn2cc([C@]3(O)CC[C@H]4[C@@H]5CCc6cc(O)ccc6[C@H]5CC[C@@]43C)nn2)cc1Cn1cc([C@]2(O)CC[C@H]3[C@@H]4CCc5cc(O)ccc5[C@H]4CC[C@@]32C)nn1 [ED9, 17,17′-[(4,6-Dimethyl-1,3-phenylene)bis(methylene-1H-1,2,3-triazole-1,4-diyl)]di[estra-1,3,5(10)-triene-3,17β-diol]]",3.92%,13.86%,38.18%,23.92%,37.90%,11.48%,17.77%,4.31%,68.38%,27.32%,2020 ± 300 nM,> 50000 nM,5260 ± 1690 nM,38 ± 11 nM,3200 ± 890 nM,1270 ± 120 nM,8.42%,41.35%,comparable or better inhibitory activity,1690 ± 57 nM,"BrDU, % of positive cells (CCRF-CEM lymphoblasts [9]; 1×IC50, 24 h): 46.72%; BrDU, % of positive cells (CCRF-CEM lymphoblasts [9]; 5×IC50, 24 h): 8.89%; BrU, % of positive cells (CCRF-CEM lymphoblasts [10]; 1×IC50, 24 h): 23.92%; BrU, % of positive cells (CCRF-CEM lymphoblasts [10]; 5×IC50, 24 h): 38.94%; IC50 [11]: > 50000 nM; IC50 [12]: 1960 ± 260 nM; IC50 at 72 h [13]: > 50000 nM; IC50 [14]: > 50000 nM"
